The structures appear in SMILES notation. The source made the active and inactive calls. The rule behind the calls is not given here.

From ChEMBL document CHEMBL1133868, “Synthesis of P(1)-Citronellyl-P(2)-alpha-D-pyranosyl pyrophosphates as potential substrates for the E. coli undecaprenyl-pyrophosphoryl-N-acetylglucoseaminyl transferase MurG” (Bioorg Med Chem Lett, 2001) come the findings set out here.

The experiment relates to Bacillus subtilis. As to the kind of experiment: Tested for antimicrobial activity against Bacillus Subtilis; Not active. The class given is functional, organism-based.

Regarding `CC(C)=CCC[C@@H](C)CCOP(=O)(O)OP(=O)(O)O[C@H]1O[C@@H](CO)[C@@H](O)[C@H](O)[C@@H]1O`, the result was inactive.
`CC(=O)NC1C(OP(=O)(O)OP(=O)(O)OCC[C@H](C)CCC=C(C)C)OC(CO)C(O)C1O[C@H](C)C(=O)O` (some centres not stated): the outcome was inactive.
